# Patent US9353092B2, “Synthesis and use of croconaine compounds” (University of Notre Dame du Lac, priority 2013, dated 2016)
# Assays:
# Format in all cases: physicochemical
# [1] = Photobleaching / photostability under near-infrared laser irradiation; conditions: 4:1 MeOH/H2O; for Heating effect during extended near-infrared irradiation: 780 nm, 250 mW, 15 minute, 1.67 μg/mL croconaine 1, 2.00 μg/mL ICG, FIG. 13; for Change in absorbance after laser irradiation: FIGS. 14 and 15
# Method: These experiments were conducted in 4:1 MeOH/H2O, with 1.67 μg/mL of croconaine 1 and 2.00 μg/mL of ICG respectively. This difference in compound photobleaching was confirmed with studies that looked at changes in the compound absorption signal.
# [2] = Laser photothermal heating of a solution (temperature change by thermocouple); conditions: for ΔT (temperature change during laser irradiation): 780 nm
# From the text: This example describes a method of using compound 1 to increase the temperature of a solution. […] An Omega hypodermic thermocouple (HYPO-33-1-T-G-60-SMPW-M) was placed in the solution and the temperature measured using the associated USB converter. The Ti:Sapphire laser beam was aligned to pass through the solution (above the stirrer and avoiding close contact with the thermocouple) in an identical manner in every experiment. The laser wavelength was set at 780 and the power controlled to be 250 mW during all of the experiments, with a beam diameter of 0.3 cm.
# […] An Omega hypodermic thermocouple (HYPO-33-1-T-G-60-SMPW-M) was placed in the solution and the temperature measured using the associated USB converter. The Ti:Sapphire laser beam was aligned to pass through the solution (above the stirrer and avoiding close contact with the thermocouple) in an identical manner in every experiment. The laser wavelength was set at 780 or 808 nm and the power controlled to be 250 mW during all of the experiments, with a beam diameter of 0.3 cm.
# [3] = Absorbance of solutions in 4:1 MeOH/H2O; conditions: 780 nm
# [4] = 810 nm, 900 s, 260 mW, 0.005 mg/mL
structure (smiles),measurement,setting,value
C#CCOCCN(CC)c1ccc(C2=C([O-])/C(=C3C=C/C(=[N+](/CC)CCOCC#C)S\3)C(=O)C2=O)s1 [Compound 1],Heating effect during extended near-infrared irradiation,[1],no heating effect loss
same,Change in absorbance after laser irradiation,[1]; [4],no change
same,ΔT (temperature change during laser irradiation),"[2]; 0.10 μg/mL, 4:1 MeOH/H2O, 250 mW",0.1 °C
same,ΔT (temperature change during laser irradiation),"[2]; 0.25 μg/mL, 4:1 MeOH/H2O, 250 mW",2.0 °C
same,ΔT (temperature change during laser irradiation),"[2]; 0.50 μg/mL, 4:1 MeOH/H2O, 250 mW",3.4 °C
same,ΔT (temperature change during laser irradiation),"[2]; 1.00 μg/mL, 4:1 MeOH/H2O, 250 mW",7.2 °C
same,ΔT (temperature change during laser irradiation),"[2]; 1.67 μg/mL, 4:1 MeOH/H2O, 250 mW",9.8 °C
same,ΔT (temperature change during laser irradiation),"[2]; 2.50 μg/mL, 4:1 MeOH/H2O, 250 mW",10.4 °C
same,ΔT (temperature change during laser irradiation),"[2]; 5.00 μg/mL, 4:1 MeOH/H2O, 250 mW",11.0 °C
same,ΔT (temperature change during laser irradiation),"[2]; 50.0 μg/mL, 4:1 MeOH/H2O, 250 mW",11.3 °C
same,Heating on laser irradiation at different wavelengths,"[2]; 4:1 MeOH/H2O, 0.05 mg/mL for laser experiments, FIG. 12",proportional to the amount of light absorbed
same,Dependence of heating on absorbance,"[2]; 780 nm laser light, Table 1, FIGS. 10 and 11",linear with absorbance from about A=0 until about A=1
same,A (absorbance value),[3]; 0.10 μg/mL,0.04
same,A (absorbance value),[3]; 0.25 μg/mL,0.11
same,A (absorbance value),[3]; 0.50 μg/mL,0.22
same,A (absorbance value),[3]; 1.00 μg/mL,0.46
same,A (absorbance value),[3]; 1.67 μg/mL,0.73
same,A (absorbance value),[3]; 2.50 μg/mL,1.13
same,A (absorbance value),[3]; 5.00 μg/mL,2.24
same,A (absorbance value),"[3]; 50.0 μg/mL, estimated",~22.4 (est)
same,Concentration dependence of absorbance,[3]; FIGS. 8 and 9,obeys the Beer-Lambert Law
C#CCOCCN(Cc1ccccc1)c1ccc(C2=C([O-])/C(=C3C=C/C(=[N+](\CCOCC#C)Cc4ccccc4)S\3)C(=O)C2=O)s1 [Compound 2],Ability to increase the temperature of a solution,"[2]; 2.0 or 50.0 μg/mL, 4:1 MeOH/H2O, 780 or 808 nm, 250 mW",same ability as compound 1
"CC1(C)C(/C=C/C=C/C=C/C=C2\N(CCCCS(=O)(=O)O)c3ccc4ccccc4c3C2(C)C)=[N+](CCCCS(=O)(=O)[O-])c2ccc3ccccc3c21 [ICG, indocyanine green]",Heating effect during extended near-infrared irradiation,[1],loss of heating effect due to photobleaching
same,Decrease in the absorbance after laser irradiation,"[1]; 810 nm, 900 s, 260 mW, 0.005 mg/mL, FIG. 15",~50%
same,Change in absorbance after laser irradiation,[1]; [4],drop
